# Target: T1, Prostaglandin E synthase (Mus musculus) (UniProt Q9JM51)
# T1 sequence (whole entry): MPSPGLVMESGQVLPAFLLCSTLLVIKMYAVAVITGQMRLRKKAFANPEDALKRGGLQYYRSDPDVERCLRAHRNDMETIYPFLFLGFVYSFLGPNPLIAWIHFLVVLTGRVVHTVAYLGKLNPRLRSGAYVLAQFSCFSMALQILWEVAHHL
# Experiment: Inhibition of microsomal PGES1 in mouse RAW264.7 cells assessed as inhibition of LPS-induced PGE2 production at 10 uM incubated for 1 hr prior to LPS challenge measured after 24 hrs by enzyme immunoassay
# Assay type: cell-based
row,inhibition,SMILES
1,93.3%,O=C(Oc1ccccc1)N(NS(=O)(=O)c1ccccc1)c1ccccc1

# Target: T1, Prostaglandin E synthase (Mus musculus)
# Experiment: Inhibition of microsomal PGES1 in mouse RAW264.7 cells assessed as inhibition of LPS-induced PGE2 production at 1 uM incubated for 1 hr prior to LPS challenge measured after 24 hrs by enzyme immunoassay
# Assay type: cell-based
row,inhibition,SMILES
1,59.9%,O=C(Oc1ccccc1)N(NS(=O)(=O)c1ccccc1)c1ccccc1

# Target: T2, Prostaglandin E synthase (Homo sapiens) (UniProt O14684)
# T2 sequence (whole entry): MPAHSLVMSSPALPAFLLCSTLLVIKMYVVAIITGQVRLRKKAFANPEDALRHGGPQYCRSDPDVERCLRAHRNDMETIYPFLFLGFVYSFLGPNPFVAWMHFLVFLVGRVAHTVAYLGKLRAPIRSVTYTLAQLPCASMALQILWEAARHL
# Experiment: Inhibition of microsomal PGES1 at 10 uM
row,inhibition,SMILES
1,90%,O=C(C=C1c2ccccc2-c2ccccc21)NNC(=O)N(c1ccccc1)c1ccccc1
2,90%,Cc1cccc(NC(=S)N/N=C/c2cccc([N+](=O)[O-])c2)c1
3,90%,Cc1n[nH]c(=S)n(/N=C/c2cccc([N+](=O)[O-])c2)c1=O
4,90%,O=C1C(=O)N(c2ccccc2)c2ccccc21
5,90%,CNC(=O)/C(=N/OC)c1ccccc1CO/N=C(/C)c1cccc(O/C(F)=C(\c2ccc(OC)cc2)C(F)(F)F)c1
6,90%,CN1C(=O)C(NC(=O)Nc2ccccc2Cl)N(C)C(=O)c2ccccc21 (racemic)

# Target: T2, Prostaglandin E synthase (Homo sapiens)
# Experiment: Inhibition of microsomal PGES1 at 25 uM
row,inhibition,SMILES
1,> 80%,O=C1Sc2ccccc2C1=O
2,> 80%,CNC(=O)/C(=N\OC)c1ccccc1O
3,> 80%,CN1C(=O)C(N)NC(=O)c2ccccc21 (racemic)

row,SMILES,inhibition
1,COc1ccc(OC(=O)Nc2ccccc2)cc1,> 80%

# From ChEMBL document CHEMBL2203223, “Identification of novel mPGES-1 inhibitors through screening of a chemical library” (Bioorg Med Chem Lett, 2012)
